Reference: patent publication US20230146455A1, “TREATMENT OF INFLAMMATORY DISEASES WITH PEPTIDES AND PHARMACEUTICAL COMPOSITIONS” (Yuyu Pharma, Inc., priority 2020, published 2023)
Several values for one entry are separate records, joined by “and”; a condition that tells them apart may be missing. Equal entries are not always repeated. Where a SMILES comes first, the peptide text is derived from it. [ ]: non-standard residue; d: D form. Hyp = O=C(O)[C@@H]1C[C@@H](O)CN1

System: IL-8
Experiment: Example 9 Luminex, LPS hPBMCs: IL-8
Format: cell-based, human
Procedure: Treatment Human PBMCs were pretreated with YY-101, YDE-011 and YDE-043 or reference compound; Xiidra® at various concentration (ranging from 1 nM to 100 uM) for 2 h before stimulation. An equal volume of 0.5% DMSO was used as a vehicle control. Then, the cells were treated with LPS at 5 ug/ml. The supernatants from treated cells were harvested at 24 h and placed in a 96 well for Luminex cytokine & chemokine profiling using a Luminex 200 multiplex assay (Luminex; R&D system, USA).
The main study arm with triplicate wells per group in a 24-well plate: • 1. Blank • 2. PBMC: 0.5% DMSO • 3. PBMC+LPS (5 ug/ml) • 4. PBMC+YY-101 100 uM • 5. PBMC+YY-101 10 uM • 6. PBMC+YY-101 1 uM • 7. PBMC+YY-101 0.1 uM • 8. PBMC+YY-101 0.01 uM • 9. PBMC+LPS (5 ug/ml)+Xiidra®100 uM • 10. PBMC+LPS (5 ug/ml)+Xiidra® 10 uM • 11. PBMC+LPS (5 ug/ml)+Xiidra® 1 uM • 12. PBMC+LPS (5 ug/ml)+Xiidra®0.1 uM • 13. PBMC+LPS (5 ug/ml)+Xiidra®0.01 uM • 14. PBMC+LPS (5 ug/ml)+Xiidra®0.001 uM • 15. PBMC+LPS (5 ug/ml)+YY-101 100 uM • 16. PBMC+LPS (5 ug/ml)+YY-101 10 uM • 17. PBMC+LPS (5 ug/ml)+YY-101 1 uM • 18. PBMC+LPS (5 ug/ml)+YY-101 0.1 uM • 19. PBMC+LPS (5 ug/ml)+YY-101 0.01 uM • 20. PBMC+LPS (5 ug/ml)+YY-101 0.001 uM • 21. PBMC+LPS (5 ug/ml)+YDE-011 100 uM • 22. PBMC+LPS (5 ug/ml)+YDE-011 10 uM • 23. PBMC+LPS (5 ug/ml)+YDE-011 1 uM • 24. PBMC+LPS (5 ug/ml)+YDE-011 0.1 uM • 25. PBMC+LPS (5 ug/ml)+YDE-011 0.01 uM • 26. PBMC+LPS (5 ug/ml)+YDE-011 0.001 uM • 27. PBMC+LPS (5 ug/ml)+YDE-043 100 uM • 28. PBMC+LPS (5 ug/ml)+YDE-043 10 uM • 29. PBMC+LPS (5 ug/ml)+YDE-043 1 uM • 30. PBMC+LPS (5 ug/ml)+YDE-043 0.1 uM • 31. PBMC+LPS (5 ug/ml)+YDE-043 0.01 uM • 32. PBMC+LPS (5 ug/ml)+YDE-043 0.001 uM
Multiplex assay was used to measure 30 cytokines and chemokines. The 1:2, 1:10 and 1:200 diluted cell supernatant and serial dilution of the standard were dispensed into a 96 well plate at 50 ul/well. Then, the pre-mixed cocktail of antibody-coated magnetic beads was dispensed at 50 ul/well and incubated at room temperature for 2 h in a horizontal orbital microplate shaker at 800±500 rpm. The beads were washed using a magnetic device to prevent loss. The biotin-antibody was dispensed in 50 ul of each well and incubated at room temperature for 1 h in a shaker at 800±500 rpm. After washing, streptavidin-PE was added at 50 ul/well and incubated at room temperature for 30 min in a shaker under the same conditions. Finally, after washing, wash buffer (100 ul/well) was added to the plate and incubated in a shaker for 2 min. The Luminex™ 200 setting were set according to the manufacturer's protocol. The data was calculated with a standard five-parameter logistic nonlinear regression analysis of the data (xPonent software 4.2, USA). The levels of cytokine/chemokine are normalized to the live cell counts (1×10^5 cells/mL) and presented as concentrations per mL (pg/mL or ng/mL).

[1] = PBMC + LPS(5 ug/ml) + test article 0.001 uM, Mean
[2] = PBMC + LPS(5 ug/ml) + test article 0.001 uM, single replicates (1st, 2nd, 3rd)
[3] = PBMC + LPS(5 ug/ml) + test article 0.01 uM, Mean
[4] = PBMC + LPS(5 ug/ml) + test article 0.01 uM, single replicates (1st, 2nd, 3rd)
[5] = PBMC + LPS(5 ug/ml) + test article 0.1 uM, Mean
[6] = PBMC + LPS(5 ug/ml) + test article 0.1 uM, single replicates (1st, 2nd, 3rd)
[7] = PBMC + LPS(5 ug/ml) + test article 1 uM, Mean
[8] = PBMC + LPS(5 ug/ml) + test article 1 uM, single replicates (1st, 2nd, 3rd)
[9] = PBMC + LPS(5 ug/ml) + test article 10 uM, Mean
[10] = PBMC + LPS(5 ug/ml) + test article 10 uM, single replicates (1st, 2nd, 3rd)
[11] = PBMC + LPS(5 ug/ml) + test article 100 uM, Mean
[12] = PBMC + LPS(5 ug/ml) + test article 100 uM, single replicates (1st, 2nd, 3rd)
[13] = PBMC + test article 0.01 uM, no LPS, Mean
[14] = PBMC + test article 0.01 uM, no LPS, single replicates (1st, 2nd)
[15] = PBMC + test article 0.1 uM, no LPS, Mean
[16] = PBMC + test article 0.1 uM, no LPS, single replicates (1st, 2nd)
[17] = PBMC + test article 1 uM, no LPS, Mean
[18] = PBMC + test article 1 uM, no LPS, single replicates (1st, 2nd)
[19] = PBMC + test article 10 uM, no LPS, Mean
[20] = PBMC + test article 10 uM, no LPS, single replicates (1st, 2nd)
[21] = PBMC + test article 100 uM, no LPS, Mean
[22] = PBMC + test article 100 uM, no LPS, single replicates (1st, 2nd)

In the case of `CC(C)C[C@H](NC(=O)CNC(=O)[C@H](CC(=O)O)NC(=O)[C@H](CCC(N)=O)NC(=O)CNC(=O)[C@@H]1C[C@@H](O)CN1)C(=O)N[C@@H](C)C(=O)NCC(=O)N1CCC[C@H]1C(=O)N[C@@H](CCCCN)C(=O)O` [YY-101] (H-[Hyp]GQDGLAGPK-OH; N-terminus and C-terminus assumed), the Concentration [1] was 47261.8 pg/mL, the conc/live cell [1] was 7362.6 pg/10^5 and the Concentration [2] was 45291.5 pg/mL and 44844.4 pg/mL and 51649.5 pg/mL. For the same compound, the conc/live cell [2] was 7945.9 pg/10^5 and 6316.1 pg/10^5 and 7825.7 pg/10^5, the Concentration [3] was 45595.7 pg/mL and the conc/live cell [3] was 7399.0 pg/10^5. The Concentration [4] was 45499.3 pg/mL and 44844.4 pg/mL and 46443.3 pg/mL, the conc/live cell [4] was 7109.3 pg/10^5 and 7474.1 pg/10^5 and 7613.7 pg/10^5 and the Concentration [5] was 41918.3 pg/mL. The conc/live cell [5] was 7205.6 pg/10^5, the Concentration [6] was 41283.9 pg/mL and 42997.0 pg/mL and 41473.9 pg/mL and the conc/live cell [6] was 6658.7 pg/10^5 and 8268.7 pg/10^5 and 6689.3 pg/10^5. For the same compound, the Concentration [7] was 46108.9 pg/mL, the conc/live cell [7] was 7089.9 pg/10^5 and the Concentration [8] was 45195.7 pg/mL and 45259.6 pg/mL and 47871.4 pg/mL. The conc/live cell [8] was 7173.9 pg/10^5 and 6374.6 pg/10^5 and 7721.2 pg/10^5, the Concentration [9] was 46679.5 pg/mL and the conc/live cell [9] was 7101.0 pg/10^5. For the same compound, the Concentration [10] was 46315.2 pg/mL and 50742.2 pg/mL and 42981.1 pg/mL, the conc/live cell [10] was 7719.2 pg/10^5 and 7928.5 pg/10^5 and 5655.4 pg/10^5 and the Concentration [11] was 46500.3 pg/mL. For the same compound, the conc/live cell [11] was 8028.8 pg/10^5, the Concentration [12] was 48337.8 pg/mL and 46988.3 pg/mL and 44174.7 pg/mL and the conc/live cell [12] was 7672.7 pg/10^5 and 7578.8 pg/10^5 and 8834.9 pg/10^5. For the same compound, the Concentration [13] was 4859.1 pg/mL, the conc/live cell [13] was 989.4 pg/10^5 and the Concentration [14] was 2863.8 pg/mL and 6854.4 pg/mL. For the same compound, the conc/live cell [14] was 550.7 pg/10^5 and 1428.0 pg/10^5, the Concentration [15] was 4413.2 pg/mL and the conc/live cell [15] was 835.0 pg/10^5. The Concentration [16] was 2701.4 pg/mL and 6125.1 pg/mL, the conc/live cell [16] was 614.0 pg/10^5 and 1056.0 pg/10^5 and the Concentration [17] was 4580.5 pg/mL. For the same compound, the conc/live cell [17] was 832.8 pg/10^5, the Concentration [18] was 4461.8 pg/mL and 4699.1 pg/mL and the conc/live cell [18] was 811.2 pg/10^5 and 854.4 pg/10^5. For the same compound, the Concentration [19] was 21138.7 pg/mL, the conc/live cell [19] was 3322.0 pg/10^5 and the Concentration [20] was 37311.2 pg/mL and 4966.2 pg/mL. The conc/live cell [20] was 5829.9 pg/10^5 and 814.1 pg/10^5, the Concentration [21] was 15311.8 pg/mL and the conc/live cell [21] was 2320.9 pg/10^5. The Concentration [22] was 19929.7 pg/mL and 10693.9 pg/mL and the conc/live cell [22] was 3114.0 pg/10^5 and 1527.7 pg/10^5.
